Test results published in US8404747B2, “Compositions and methods for modulating interaction between polypeptides” (The General Hospital Corporation, priority 2004, dated 2013).
Entries after “also recorded” stand apart in the source; their conditions may differ. Values belong to the compound of their own block, whether it stands above or below them.

Columns and labels:
[1] = tested on: aggregation of 103Q in PC12 cells; assay: polyQ (103Q) aggregation in ecdyson-inducible PC12 cells; assay type: cell-based, rat
Procedure: (§1) To study the inhibitors we identified using the yeast screen in mammalian cells, we employed ecdyson-inducible rat phaeochromocytoma (PC12) cells. Compounds were tested in two clones, 14A2/5 and 14A2/6, with highest aggregation rate. We incubated undifferentiated PC12 cells with muristerone A to induce 103Q expression, and we exposed the cells to compounds at concentrations ranging from 1 to 10 μM. […] All compounds were non-toxic except C2, which was toxic at concentrations higher than 5 μM.
We tested these analogs at concentrations ranging from 0.025 μM to 5.0 μM for their effects on polyQ aggregation in PC12 cells. Among 24 analogs of C1; 28 analogs of C2; 24 analogs of C3, and 53 analogs of C4, we identified several potent inhibitors of polyQ aggregation. From our C2 focus library, we isolated compound C2-8 (B2 in Table 2), which inhibits polyQ aggregation with an IC50 value 50 nM. We also identified C2-10 (B6 in Table 2) and C2-11 (M16 (formula V(n)) in Table 5), and B7, B8 and B9 in Table 2. From our C3 focus library, we isolated compound C3-5 (M22 (formula V(t)) in Table 5) (having an IC50 value of 100 nM) and compound C3-6 (M17 (formula V(o)) in Table 5) (having an IC50 value of 5 μM). From our C4 library, we isolated compound C4-7 (A31 in Table 1), which has an IC50 value 100 nM. We also identified C4-34 (A3 in Table 1).

PC12 cells = assay: toxicity in PC12 cells; assay type: cell-based, rat
Procedure: as §1
In the C1 library, no inhibitors of polyQ aggregation with high potency were found.

Cos1 cells = assay: toxicity for Cos1 cells; assay type: cell-based
Procedure: The inhibitory activity we observed with C1-C4 in the PC12 cell model described above was confirmed in Cos1 cells transiently transfected with a CMV promoter-based DNA construct that encodes an Htt exon I fragment of Huntington's disease protein (Htt)) having 51 consecutive glutamine residues (HD Q51). When expressed in Cos1 cells, HD 51Q polypeptides readily form aggregates. Transfected Cos1 cells were incubated with C1-C4 compounds in culture medium and lysed. The lysates were then heat-denatured in SDS and passed through a cellulose acetate membrane, which captures aggregated, but not soluble polypeptides. Polyglutamine aggregates trapped on membranes were detected by immunostaining with antibody specific to extended polyQ. Pre-incubation of cells with compounds C1, C3, and C4 decreased the amount of retained polyQ, indicating inhibitory effects on polyQ aggregation. The IC50 for compound C1 was 10 μM and the IC50 for compounds C3 and C4 was 5 μM. As C2 was toxic for Cos1 cells, its effect on aggregation was not determined.

[2] = biological target: T1, Recombinant HD Q51 polypeptide (Homo sapiens, UniProt P42858, INS38QQQQQQQQQQQQQQQQQQQQQQQQQQQQQQ); assay: cell-free trap assay of purified polyQ; assay type: biochemical; details: cell-free; up to 100 mM
T1 construct: made in house
T1 sequence (P42858 with tags, fused parts or gaps with the stated changes): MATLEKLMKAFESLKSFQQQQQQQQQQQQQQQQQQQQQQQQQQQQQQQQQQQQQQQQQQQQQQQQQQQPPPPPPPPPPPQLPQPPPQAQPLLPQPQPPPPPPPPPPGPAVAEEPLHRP
Procedure: To determine whether C2 could directly interfere with polyQ aggregation, we reproduced this process in vitro and assayed the inhibitory effects of the compounds in a cell-free trap assay. Recombinant HD Q51 polypeptide, purified from bacteria, was incubated in the presence or in the absence of C2 for a time sufficient to allow aggregation. Then, upon heat-denaturation in SDS buffer, samples were filtered through a cellulose acetate membrane. Harsh denaturation conditions separated unaggregated soluble peptides, which passed through the membrane, and insoluble aggregates, which were retained on the membrane. The polyQ aggregates trapped on the membrane were subsequently immunostained and quantified.
Congo Red, which is structurally unrelated to C2-8, was used as a control.

p53 protein = assay: levels of endogenous p53 protein in PC12 cells; assay type: cell-based, rat
Procedure: The protein levels of Htt fragments containing 103Q in PC12 cells were not affected by incubation with compounds at the concentrations tested. Furthermore, proteolytic capacity of cells treated with compound C2 appeared to be normal, since levels of a highly unstable endogenous p53 protein in PC12 cells were not changed.

[3] = tested on: polyQ-containing polypeptides; assay: aggregation of polyQ-containing polypeptides, assay not specified
photoreceptor neurons = assay: Drosophila HD photoreceptor neurodegeneration model; assay type: in vivo
From the text: A variety of animal models of Huntington disease have been developed. Examination of the degeneration of photoreceptor neurons facilitated by extended polyQ expression is one such model (Jackson et al., Neuron 21:633-642, 1998).
We used the photoreceptor model in Drosophila to test a variety of different compounds, including naphthylamine derivatives, for an effect on neurodegeneration. […] C9-2 is 2-(3-methoxypropyl)-1H-benzo[de]isoquinoline-1,3(2H)-dione.

HDAc = HDAc activity; assay type: biochemical
[4] = tested on: striatum of 11Q/111Q cells and PC12 cells; assay: transcriptional activation or repression in striatum 111Q cells and PC12 cells; assay type: cell-based
From the text: Biochemical activity associated with C9-2 is not well understood. […] Future studies include testing the compound for anti-apoptotic activity, and transcriptional profiling using a striatum cell line derived from a double knock-out mutant htt mouse. The C9-2 analogs C9-2B (A30 in Table 1) and C9-2A (control) (A29 in Table 1) are being tested for an effect on photoreceptor neurodegeneration in the Drosophila HD model.

DNA = DNA binding activity
[5] = tested on: SP1 trancription factor binding motif (6XSP1) promoter; assay: 6XSP1 luciferase transcription-based assay in 111Q/111Q striatum double knock-in cells; assay type: cell-based, mouse; details: 6XSP1 luciferase reporter; CG4 among CG series, less potent than C9-4
Procedure: FIGS. 1A-1C. FIG. 1A is a bar graph showing luciferase expression in Sp1-luc/111Q striatum double knock-in cells following treatment with different compounds, as indicated. Fluorescence was measured 24 hours after addition of compound. FIG. 1B is a bar graph as described in FIG. 1A. Fluorescence was measured 48 hours after addition of compound. FIG. 1C is a bar graph as described in FIG. 1A. Fluorescence was measured 72 hours after addition of compound.
We conducted structure activity relationship (SAR) studies to optimize transcription activation. We developed a novel transcription-based assay for this purpose. A luciferase reporter gene was stably integrated into 111Q/111Q striatum double knock-in cells and constitutively expressed under control of a promoter containing six copies of the SP1 trancription factor binding motif (6XSP1). In this system, C9 was determined to have an EC200 of 7.5 μM.

htt103Q-EGFP = assay: PC12 htt103Q-EGFP fluorescence assay; assay type: cell-based; details: PC12 cells
From the text: A PC12 cell line was engineered to express extended polyQ under the control of an ecdysone-inducible promoter. In the assay cell line, an N-terminal fragment of htt containing an extended polyQ tract was stably expressed as a fusion with EGFP (htt103Q-EGFP), from the pIND vector. Expression of extended polyQ in these cells was controlled by addition of an ecdysone analog, in this case muristerone A. In this assay, EGFP fluorescence directly correlated with htt103Q-EGFP expression levels. This system was designed to assess the effects of specific compounds on overall levels of extended polyglutamines in cells, using a simple fluorescent-based read-out.

proteasomal dysfunction = proteasomal dysfunction in PC12 cells expressing extended polyQ; assay type: cell-based
[6] = tested on: mutant Huntingtin transgene (htt); assay: transgene (mutant htt, extended polyQ) expression in inducible PC12 cells; assay type: cell-based, rat; details: 2.5 μM
From the text: The compound C9 (A33 in Table 1) has structural similarity to the histone deacetylase (HDAc) inhibitor, scriptaid (6-(1,3-Dioxo-1H,3H-benzo[de]isoquinolin-2-yl)-N-hydroxyhexanamide) (Su et al., Cancer Res. 60:3137, 2000; A5 in Table 1). We observed the most dramatic effect on expression level by C9 and scriptaid in the PC12 cell line 14A2/6 expressing the extended polyQ mutant htt(104Q). The effect of C9 on the down-regulation of polyQ expression, was similar to cystamine, a drug that has shown efficacy in a mouse model for Huntington's Disease (HD). […] 14A2/6 cells were at least 5-fold more responsive to chemical treatment than other cell lines tested.
Transcriptional dysregulation is a hallmark of HD. […] Expression of the polypeptide was under control of an inducible ecdysone receptor (EcR)-based promoter.

flies = assay: toxicity to flies; parameters: species or system Drosophila; details: in vivo
From the text: Scriptaid was toxic to flies.

IC50 ([1]; Rattus norvegicus, PC-12, PC12 clones 14A2/5 and 14A2/6, muristerone A induced, 1 to 10 μM, read-out: IC50, aggregation of 103Q): 5 µM
aggregation of pure polyglutamines in vitro [2]: failed to block aggregation
Compound: O=C(Nc1ccc(Br)cc1)c1ccc(Br)c(S(=O)(=O)NC2CCCCC2)c1 [Compound C2, 4-Bromo-N-(4-bromo-phenyl)-3-cyclohexylsulfamoyl-benzamide]
toxic concentrations (PC12 cells; PC12 cells): higher than 5 μM
toxicity for Cos1 cells (Cos1 cells): toxic
levels of endogenous p53 protein (p53 protein): not changed

Compound: COCCCN1C(=O)c2cccc3cccc(c23)C1=O [Compound C9-2, 2-(3-Methoxy-propyl)-benzo[de]isoquinoline-1,3-dione]
effect on aggregation [3]: does not appear to suppress aggregation; also recorded: facilitate protein-protein aggregation
neurodegeneration of photoreceptor neurons (photoreceptor neurons): dramatic neuroprotection
direct inhibition of HDAc activity (HDAc): does not appear to inhibit
transcriptional activation or repression [4]: no transcriptional activation or repression
DNA binding activity (DNA): nor has DNA binding activity been detected
transcription activation [5]: did not effectively activate transcription

Compound: CCOC(=O)c1c(NC(=O)Cc2ccc(OC)cc2)sc(C(=O)Nc2ccccc2OC)c1C [Compound D1, 2-[2-(4-Methoxy-phenyl)-acetylamino]-5-(2-methoxy-phenylcarbamoyl)-4-methyl-thiophene-3-carboxylic acid ethyl ester]
effect on protein aggregation (htt103Q-EGFP): facilitators of protein aggregation
proteasomal dysfunction phenotype (proteasomal dysfunction): relieved this phenotype

Compound: CCOC(=O)c1c(NC(=O)c2ccccc2C)sc(C(=O)Nc2ccccc2OC)c1C [Compound D2, 5-(2-Methoxy-phenylcarbamoyl)-4-methyl-2-(2-methyl-benzoylamino)-thiophene-3-carboxylic acid ethyl ester]
effect on protein aggregation (htt103Q-EGFP): facilitators of protein aggregation
proteasomal dysfunction phenotype (proteasomal dysfunction): relieved this phenotype

Compound: O=C(CCCCCN1C(=O)c2cccc3cccc(c23)C1=O)NO [Scriptaid, 6-(1,3-Dioxo-1H,3H-benzo[de]isoquinolin-2-yl)-hexanoic acid hydroxyamide, reference compound]
cells with aggregation ([1]; 14A2/6 cells, 2.5 μM): 100%
cell viability (PC12 cells; 14A2/6 cells, 2.5 μM): cell death
expression of transgene ([6]; 14A2/6 cells): dramatic overexpression
expression of transgene ([6]; other cell lines): modestly stimulated
toxicity to flies (flies): toxic
